Data reported in patent publication US11987586B1 (TAKEDA PHARMACEUTICAL COMPANY LIMITED, priority 2022, dated 2024).

Target: T1, human OX2 receptor (Homo sapiens, UniProt O43614)
T1 construct: expressed in transfected cells
T1 sequence (O43614 1-444): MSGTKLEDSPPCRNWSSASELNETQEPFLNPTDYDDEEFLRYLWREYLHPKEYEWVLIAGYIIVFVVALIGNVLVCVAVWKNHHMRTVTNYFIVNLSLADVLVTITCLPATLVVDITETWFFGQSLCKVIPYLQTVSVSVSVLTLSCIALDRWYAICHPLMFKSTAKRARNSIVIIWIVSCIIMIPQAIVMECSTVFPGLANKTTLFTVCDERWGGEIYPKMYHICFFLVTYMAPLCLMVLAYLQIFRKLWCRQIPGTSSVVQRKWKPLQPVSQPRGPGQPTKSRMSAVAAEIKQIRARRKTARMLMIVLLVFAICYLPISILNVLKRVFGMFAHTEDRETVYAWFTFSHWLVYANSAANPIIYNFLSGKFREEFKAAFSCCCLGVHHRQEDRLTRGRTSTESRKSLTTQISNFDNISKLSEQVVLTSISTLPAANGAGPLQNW
Test: Measurement of orexin type 2 receptor agonist activity (calcium fluorescence, Fluo-4, FDSS)
Assay type: cell-based
Conditions: 3 uM test compound; CHO cells expressing human OX2 receptor; DMSO = 0%, 10 nM orexin A (human) = 100%
Protocol: In order to obtain cell clones that stably express human orexin type 2 receptor, human orexin type 2 (residues 1-444, NCBI Reference Sequence: AK314279) was constructed in a pcDNA3.1 (+) vector (Invitrogen) to express in mammalian cells. This plasmid DNA was transfected into CHO-K1 cells by electroporation, and stable clones were obtained by limiting dilution using resistance to G418 as a selection marker.
CHO cells in which human OX2 receptor was forcibly expressed were seeded at 10,000 cells/well into a 384-well black transparent bottom plate (BD falcon), and were incubated at 37° C., 5% CO2 for 1 day after incubation at room temperature for 30 minutes. After removing the cell plate medium, assay buffer containing calcium indicator A (HBSS (Thermo Fisher Scientific), 20 mM HEPES (Thermo Fisher Scientific), 0.1% BSA (Sigma-Aldrich), 2.5 μg/mL Fluo-4 AM (Dojin Kagaku), 0.08% Pluronic F127 (Dojin Kagaku), 1.25 mM probenecid (Dojin Kagaku)) was added at 30 μL/well. After incubation in a 5% CO2 incubator at 37° C. for 30 minutes, it was incubated at room temperature for another 30 minutes. Add 10 μL/well of the test compound diluted with assay buffer B (HBSS, 20 mM HEPES, 0.1% BSA), and use FDSS μCELL (Hamamatsu Photonics) to measure the fluorescence value every 1 second for 1 minute, and then every 2 seconds for 1 minute. It was measured for 1 minute and 40 seconds. The amount of fluorescence value when DMSO is added instead of the test compound is defined as 0%, and the amount of fluorescence value when orexin A (human) (Peptide Institute) with a final concentration of 10 nM is added is defined as 100%. The activity (%) of the test compound was calculated.

Row | OX2R agonist activity (3 uM, %) | Compound
1 | 94% | COCc1cc(-c2c(F)cccc2F)c2c(-n3cc4n(c3=O)C[C@@H](NS(C)(=O)=O)C4(F)F)noc2c1 [Example 132, N-{(6R)-2-[4-(2,6-difluorophenyl)-6-(methoxymethyl)-1,2-benzoxazol-3-yl]-7,7-difluoro-3-oxo-2,5,6,7-tetrahydro-3H-pyrrolo[1,2-c]imidazol-6-yl}methanesulfonamide]
2 | 99% | CCS(=O)(=O)N[C@@H]1CN2C(=O)N(c3noc4cc(F)c(F)c(-c5c(F)cccc5F)c34)CC[C@@H]2C1(F)F [Example 311, N-{(4aR,6R)-2-[4-(2,6-difluorophenyl)-5,6-difluoro-1,2-benzoxazol-3-yl]-5,5-difluoro-1-oxooctahydropyrrolo[1,2-c]pyrimidin-6-yl}ethanesulfonamide]
3 | 107% | CCS(=O)(=O)NC1Cn2c(cn(-c3noc4ccc(F)c(-c5c(F)cc(F)cc5F)c34)c2=O)CC1(F)F (single isomer, unassigned) [Example 246, N-{(6R*)-7,7-difluoro-2-[5-fluoro-4-(2,4,6-trifluorophenyl)-1,2-benzoxazol-3-yl]-3-oxo-2,3,5,6,7,8-hexahydroimidazo[1,5-a]pyridin-6-yl}ethanesulfonamide]
4 | 105% | CCS(=O)(=O)N[C@@H]1CN2C(=O)N(c3noc4cc(C(F)F)cc(-c5c(F)cc(F)cc5F)c34)C[C@@H]2C1(F)F [Example 298, N-{(6R,7aR)-2-[6-(difluoromethyl)-4-(2,4,6-trifluorophenyl)-1,2-benzoxazol-3-yl]-7,7-difluoro-3-oxohexahydro-1H-pyrrolo[1,2-c]imidazol-6-yl}ethanesulfonamide]
5 | 109% | CCS(=O)(=O)N[C@@H]1Cn2c(cn(-c3noc4cc(Cl)cc(-c5c(F)cccc5F)c34)c2=O)C1(F)F [Example 68, N-{(6R)-2-[6-chloro-4-(2,6-difluorophenyl)-1,2-benzoxazol-3-yl]-7,7-difluoro-3-oxo-2,5,6,7-tetrahydro-3H-pyrrolo[1,2-c]imidazol-6-yl}ethanesulfonamide]
6 | 100% | COc1cc(-c2c(F)cc(F)cc2F)c2c(N3CC[C@H]4N(C[C@@H](NS(=O)(=O)C5CC5)C4(F)F)C3=O)noc2n1 [Example 308, N-{(4aR,6R)-5,5-difluoro-2-[6-methoxy-4-(2,4,6-trifluorophenyl)[1,2]oxazolo[5,4-b]pyridin-3-yl]-1-oxooctahydropyrrolo[1,2-c]pyrimidin-6-yl}cyclopropanesulfonamide]
7 | 106% | CS(=O)(=O)N[C@@H]1CN2C(=O)N(c3noc4cccc(-c5c(F)cccc5F)c34)C[C@@H]2C1(F)F [Example 34, N-{(6R,7aR)-2-[4-(2,6-Difluorophenyl)-1,2-benzoxazol-3-yl]-7,7-difluoro-3-oxohexahydro-1H-pyrrolo[1,2-c]imidazol-6-yl}methanesulfonamide]
8 | 108% | Cc1cc(-c2c(F)cccc2F)c2c(N3C[C@H]4N(C[C@@H](NS(C)(=O)=O)C4(F)F)C3=O)noc2n1 [Example 164, N-{(6R,7aR)-2-[4-(2,6-difluorophenyl)-6-methyl[1,2]oxazolo[5,4-b]pyridin-3-yl]-7,7-difluoro-3-oxohexahydro-1H-pyrrolo[1,2-c]imidazol-6-yl}methanesulfonamide]
9 | 92% | CCS(=O)(=O)N[C@H]1Cc2cn(-c3noc4cc(C(F)(F)F)cc(-c5c(F)cccc5F)c34)c(=O)n2C1 [Example 84, N-{(6S)-2-[4-(2,6-difluorophenyl)-6-(trifluoromethyl)-1,2-benzoxazol-3-yl]-3-oxo-2,5,6,7-tetrahydro-3H-pyrrolo[1,2-c]imidazol-6-yl}ethanesulfonamide]
10 | 114% | O=C1N(c2noc3cccc(-c4c(F)cc(F)cc4F)c23)CC[C@H]2N1C[C@@H](NS(=O)(=O)CF)C2(F)F [Example 203, N-{(4aR,6R)-5,5-difluoro-1-oxo-2-[4-(2,4,6-trifluorophenyl)-1,2-benzoxazol-3-yl]octahydropyrrolo[1,2-c]pyrimidin-6-yl}-1-fluoromethanesulfonamide]
11 | 105% | CCS(=O)(=O)N[C@@H]1CN2C(=O)N(c3noc4cc(F)cc(-c5c(F)cc(F)cc5F)c34)CC[C@@H]2C1(F)F [Example 261]
12 | 105% | CCOc1cc(-c2c(F)cccc2F)c2c(N3CC[C@H]4N(C[C@@H](NS(=O)(=O)C5CC5)C4(F)F)C3=O)noc2c1 [Example 300, N-{(4aR,6R)-2-[4-(2,6-difluorophenyl)-6-ethoxy-1,2-benzoxazol-3-yl]-5,5-difluoro-1-oxooctahydropyrrolo[1,2-c]pyrimidin-6-yl}cyclopropanesulfonamide]
13 | 102% | CCOc1cc2onc(N3CC[C@H]4N(C[C@@H](NS(C)(=O)=O)C4(F)F)C3=O)c2c(-c2c(F)cccc2F)c1F [Example 228, N-{(4aR,6R)-2-[4-(2,6-difluorophenyl)-6-ethoxy-5-fluoro-1,2-benzoxazol-3-yl]-5,5-difluoro-1-oxooctahydropyrrolo[1,2-c]pyrimidin-6-yl}methanesulfonamide]
14 | 98% | CCS(=O)(=O)N[C@@H]1Cn2c(cn(-c3noc4ccc(F)c(-c5c(F)cc(F)cc5F)c34)c2=O)C1(F)F [Example 92, N-{(6R)-7,7-Difluoro-2-[5-fluoro-4-(2,4,6-trifluorophenyl)-1,2-benzoxazol-3-yl]-3-oxo-2,5,6,7-tetrahydro-3H-pyrrolo[1,2-c]imidazol-6-yl}ethanesulfonamide]
15 | 94% | CCS(=O)(=O)N[C@H]1C[C@@H]2CN(c3noc4cccc(-c5c(F)cccc5F)c34)C(=O)N2C1 [Example 49, N-{(6S, 7aR)-2-[4-(2,6-difluorophenyl)-1,2-benzoxazol-3-yl]-3-oxohexahydro-1H-pyrrolo[1,2-c]imidazol-6-yl}ethanesulfonamide]
16 | 102% | CS(=O)(=O)N[C@@H]1Cn2c(cn(-c3noc4cc(OC(F)F)cc(-c5c(F)cc(F)cc5F)c34)c2=O)C1(F)F [Example 113, N-{(6R)-2-[6-(difluoromethoxy)-4-(2,4,6-trifluorophenyl)-1,2-benzoxazol-3-yl]-7,7-difluoro-3-oxo-2,5,6,7-tetrahydro-3H-pyrrolo[1,2-c]imidazol-6-yl}methanesulfonamide]
17 | 97% | CS(=O)(=O)N[C@H]1Cc2cn(-c3noc4cccc(-c5c(F)cccc5F)c34)c(=O)n2C1 [Example 26, N-{(6S)-2-[4-(2,6-difluorophenyl)-1,2-benzoxazol-3-yl]-3-oxo-2,5,6,7-tetrahydro-3H-pyrrolo[1,2-c]imidazol-6-yl}methanesulfonamide]
18 | 103% | CCS(=O)(=O)N[C@@H]1CN2C(=O)N(c3noc4cc(OC(F)F)cc(-c5c(F)cc(F)cc5F)c34)CC[C@@H]2C1(F)F [Example 303, N-{(4aR,6R)-2-[6-(difluoromethoxy)-4-(2,4,6-trifluorophenyl)-1,2-benzoxazol-3-yl]-5,5-difluoro-1-oxooctahydropyrrolo[1,2-c]pyrimidin-6-yl}ethanesulfonamide]
19 | 106% | CN(C)S(=O)(=O)N[C@H]1C[C@H]2CN(c3noc4cccc(-c5c(F)cccc5F)c34)C(=O)N2C1 [Example 28, N′-{(6S,7aS)-2-[4-(2,6-difluorophenyl)-1,2-benzoxazol-3-yl]-3-oxohexahydro-1H-pyrrolo[1,2-c]imidazol-6-yl}-N,N-dimethylsulfuric diamide]
20 | 109% | CCS(=O)(=O)N[C@@H]1CN2C(=O)N(c3noc4cccc(-c5nccs5)c34)CC[C@@H]2C1(F)F [Example 330, N-{(4aR,6R)-5,5-difluoro-1-oxo-2-[4-(1,3-thiazol-2-yl)-1,2-benzoxazol-3-yl]octahydropyrrolo[1,2-c]pyrimidin-6-yl}ethanesulfonamide]
21 | 101% | CCS(=O)(=O)N[C@@H]1CN2C(=O)N(c3noc4cccc(-c5ncc(F)cc5C)c34)CC[C@@H]2C1(F)F [Example 335, N-{(4aR,6R)-5,5-difluoro-2-[4-(5-fluoro-3-methylpyridin-2-yl)-1,2-benzoxazol-3-yl]-1-oxooctahydropyrrolo[1,2-c]pyrimidin-6-yl}ethanesulfonamide]
